In ChEMBL document CHEMBL1201862, “PubChem BioAssay data set” (2004):
Active and inactive are the calls of the source. Rule as the data show it: actives have a measured IC50 and inactives only a lower limit.

Target: Envelope glycoprotein gp160 (Human immunodeficiency virus 1, UniProt Q6QLK5)
Assay: inhibitors of HIV fusion peptide binding, primary screen, biochemical, uHTS, fluorescence dequenching (AID 1986)

Envelope glycoprotein gp160, sequence (Q6QLK5 whole entry, the tested form may be a part): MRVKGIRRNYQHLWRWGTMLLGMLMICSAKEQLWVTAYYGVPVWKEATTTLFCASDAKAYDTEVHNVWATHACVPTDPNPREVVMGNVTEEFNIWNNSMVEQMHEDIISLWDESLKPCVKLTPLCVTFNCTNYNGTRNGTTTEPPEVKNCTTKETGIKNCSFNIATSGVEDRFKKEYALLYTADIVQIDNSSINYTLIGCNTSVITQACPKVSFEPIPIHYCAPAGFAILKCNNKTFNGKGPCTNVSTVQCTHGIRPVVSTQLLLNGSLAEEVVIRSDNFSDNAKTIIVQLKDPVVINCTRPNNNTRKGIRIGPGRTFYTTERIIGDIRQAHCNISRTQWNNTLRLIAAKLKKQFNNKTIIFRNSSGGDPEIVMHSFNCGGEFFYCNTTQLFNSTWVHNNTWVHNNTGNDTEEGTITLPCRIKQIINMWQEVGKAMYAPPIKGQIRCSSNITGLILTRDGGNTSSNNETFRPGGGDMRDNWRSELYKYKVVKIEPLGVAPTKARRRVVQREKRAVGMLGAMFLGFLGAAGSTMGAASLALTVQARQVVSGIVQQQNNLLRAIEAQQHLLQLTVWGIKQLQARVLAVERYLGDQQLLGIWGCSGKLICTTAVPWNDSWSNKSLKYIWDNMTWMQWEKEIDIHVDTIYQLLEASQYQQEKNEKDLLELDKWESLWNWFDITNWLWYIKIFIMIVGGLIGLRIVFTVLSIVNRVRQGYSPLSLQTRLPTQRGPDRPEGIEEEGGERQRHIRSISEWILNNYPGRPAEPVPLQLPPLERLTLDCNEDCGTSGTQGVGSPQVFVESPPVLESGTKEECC

O=C(CN1C(=O)/C(=C2\SC(=S)N(CCS(=O)(=O)O)C2=O)c2ccccc21)Nc1cccc(Br)c1
IC50: 9.81 µM (active)
